Assay [1] has as its system thoracodorsal arteries (TDA). In words: ATP release from intact TDA (luciferin:luciferase). Type of assay: cell-based, mouse. The conditions noted are these: for effect on phenylephrine-induced ATP release from intact TDAs: phenylephrine 100 μmol/L, ^10Panx1 300 μmol/L, peptides 3 μmol/L. On the procedure:
Mouse TDAs of equal length were isolated and washed thoroughly to eliminate red blood cells. Vessels were placed in a well of a 96-well plate containing Krebs-HEPES solution supplemented with 1% BSA at 37° C. for 30 minutes to allow for degradation of any ATP released as a result of mechanical stimulation during manipulation of the vessel. For measurements performed on HEK cells: 24 hours after transfection, cells cultured in 24-well plates were cautiously washed twice with warm Krebs-HEPES-BSA and 300 μl of Krebs-HEPES-BSA was added to each well after the last wash as previously described. The plate was then kept in the incubator at 37° C. with 5% CO2 for 30 minutes to allow for degradation of ATP eventually released during the washes.
The ectonucleotidase inhibitor ARL67156 (300 μmol/L) was applied to each well. When indicated, ^10Panx1 (300 μmol/L) or the peptides analog to intracellular regions of Panx1 (3 μmol/L) were added along with the ARL67156. After a 30 minute incubation at 37° C. with the inhibitor(s), phenylephrine (100 μmol/L) or equivalent volume of Krebs-HEPES-BSA was added and the plate was kept at 37° C. After five minutes of phenylephrine stimulation, the media surrounding the TDA or the cells was transferred to an Eppendorf tube and centrifuged for five minutes at 5,000×g to eliminate eventual cell debris. Fifty microliters of the supernatant was transferred to a white-wall 96 well plate and placed in a FluoStar Omega luminometer. The ATP concentration was measured by adding 50 μL of luciferin:luciferase reagent (ATP bioluminescence assay kit HSII; Roche), which was injected into each well and the luminescence was immediately recorded. Data are expressed as a percent increase in ATP concentration compared to unstimulated condition. Each stimulated condition was compared to unstimulated condition performed on the same day, and all experiments were performed on at least 15 wells of HEK cells or three TDAs. Data were analyzed using a Kruskall Wallis test (non-parametric one-way ANOVA) followed by Dunn's post-hoc test.
To determine if the TDA response involved release of ATP, we dissected TDAs from C57Bl/6 mice and measured the accumulation of extracellular ATP in response to various agonists in the medium (FIG. 1E, inset). The TDAs were placed in a well of a 96 well plate in Krebs-HEPES solution and treated with the ectonucleotidase inhibitor ARL67156 for 30 minutes. Next, arteries were treated with a contractile agonist for five minutes and the amount of ATP in the media surrounding the vessel was determined using the ATP bioluminescence assay kit HSII (Roche).

The target in assay [2] is T1, Panx1 (Mus musculus, UniProt Q9JIP4).
T1 construct: we progressively substituted amino acids in this region of full-length Panx1 with alanine residues; HA; expressed in transfected cells; host or cells: HEK293T cells, transient co-transfection with alpha1DAR plasmid (Origene, NM_013460, C-terminal Myc-DDK)
T1 sequence (Q9JIP4 whole entry): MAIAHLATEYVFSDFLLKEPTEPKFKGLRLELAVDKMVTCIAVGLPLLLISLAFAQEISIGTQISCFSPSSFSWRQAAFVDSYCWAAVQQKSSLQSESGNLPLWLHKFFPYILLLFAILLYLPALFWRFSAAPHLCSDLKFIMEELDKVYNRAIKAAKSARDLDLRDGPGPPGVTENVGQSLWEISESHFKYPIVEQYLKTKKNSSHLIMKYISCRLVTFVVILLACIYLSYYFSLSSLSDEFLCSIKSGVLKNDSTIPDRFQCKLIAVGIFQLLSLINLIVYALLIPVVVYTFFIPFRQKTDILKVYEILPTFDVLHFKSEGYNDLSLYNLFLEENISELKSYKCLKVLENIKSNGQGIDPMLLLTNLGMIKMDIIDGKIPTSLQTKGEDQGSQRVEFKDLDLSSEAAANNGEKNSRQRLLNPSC
In words: Whole-cell patch clamp of CBX-sensitive Panx1 current in HEK293 cells cotransfected with mPanx1 and α1DAR. The conditions noted are these: phenylephrine 20 μmol/L; for effect on phenylephrine-induced Panx1 current: cells pre-incubated with peptide 40-60 minutes. The assay is classed as cell-based. On the procedure: Human Embryonic Kidney (HEK) 293T cells were cultured as previously described, and were used until passage 20. For ATP measurements, 50,000 cells/well were seeded in 24 well plates pre-coated with 0.01% poly-L-lysine, and transfected using Lipofectamine 2000 (Invitrogen) according to the manufacturer protocol. Briefly, 0.4 μg of α1DAR and 0.4 μg of Panx1^WT, Panx1^KYP>AAA, Panx1^IVEQ>AAA or Panx1^YLK>AAA plasmids were added to each well along with 2 μl of Lipofectamine 2000. For electrophysiology measurements, 4 μg of α1DAR plasmid, 2 μg of Panx1^WT, Panx1^KYP>AAA, Panx1^IVEQ>AAA or Panx1^YLK>AAA plasmids, and 0.5 μg of GFP plasmid were mixed with 10 μl Lipofectamine 2000 and added to a well of 6-well plate seeded with ˜70% confluent HEK cells. Cells were split the next morning and plated onto a glass coverslip for recording. ATP measurements and whole-cell recordings were performed 24 hours after transfection.
Whole-cell recordings were obtained at room temperature from transiently transfected HEK293T cells using Axopatch 200B amplifier (Molecular Devices) in a bath solution composed of 140 mmol/L NaCl, 3 mmol/L KCl, 2 mmol/L MgCl2, 2 mmol/L CaCl2, 10 mmol/L HEPES and 10 mmol/L glucose (pH 7.3). Patch pipettes (3-5 MΩ) were filled with a Cs-/TEA-based internal solution, as previously described. Ramp voltage commands with 7-s intervals were applied using pCLAMP software and Digidata1322A digitizer (Molecular Devices). Peak whole-cell currents were determined at +80 mV and normalized to cell capacitance. Current mediated by Panx1 was defined by its sensitivity to carbenoxolone (CBX). In this system, no CBX-sensitive current is observed in HEK293T cells without Panx1. Basal current was recorded for approximately two minutes and PE (20 μmol/L) was applied to the bath solution, which was followed by addition of CBX (50 μmol/L). When indicated, cells were pre-incubated with bath solution containing IL2 peptide or its scrambled version at room temperature for 40-60 minutes prior to the experiment. The effect of PE on Panx1 current was quantified relative to CBX-sensitive basal current, and data was expressed as percent increase in CBX-sensitive current. All experiments were performed on 8 to 22 cells for each conditions tested. Data were analyzed using a Kruskall Wallis test (non-parametric one-way ANOVA) followed by Dunn's post-hoc test.
To test if α1AR stimulation triggered opening of the Panx1 channel and the importance of the region represented by the IL2 peptide, we cotransfected mPanx1 and α1DAR into HEK293 cells and monitored whole-cell currents by patch clamp electrophysiology.
(In general: In patch-clamp work, channel activity is measured electrically.)

Results on three compounds are retold here after patent US10314883B2, “Compositions and methods for regulating blood pressure” (University of Virginia Patent Foundation, priority 2015, dated 2019).

With `CNC[C@H](O)c1cccc(O)c1` [Phenylephrine, phenylephrine], the “ATP release from intact TDAs in response to agonist” value in assay [1] (five minutes of agonist, ARL67156 300 μmol/L) is “stimulated ATP release”. In addition, the “effect of agonist on Panx1 whole-cell current” value in assay [2] (cells expressing both mPanx1 and α1DAR) is recorded as “increased this current”.
Take “scrambled intracellular loop 2 IYLYVEQKPY (SEQ ID NO: 7) linked with a TAT sequence [Scrambled IL2]”: the “effect on phenylephrine-induced ATP release from intact TDAs” value in assay [1] was “no effect”. For the same compound, the “effect on phenylephrine-induced Panx1 current” value in assay [2] was “no effect”.
KYPIVEQYLKYGRKKQRRR [IL2]: in assay [1], the “effect on phenylephrine-induced ATP release from intact TDAs” value is on record as “significantly decreased”. Besides, in assay [2], the “effect on phenylephrine-induced Panx1 current” value is reported as “significantly decreased”.
